As a reminder, the half-life is the time in which the quantity being followed falls by half.

Where two headings read alike, the source gives them in different places.

For series [1] the following is noted: in vivo; cited from earlier work.
Series [2] can be described thus: estimated blood plasma concentration of oxaliplatin in systemic therapy for colon cancer. It counts as in vivo, human. The following applies: 85 mg per meter-squared, 145 mg total dose, 65 kg person, 5 liters of blood, assuming even distribution and constant rate of elimination.
The conditions of series [3]: cited from earlier work.
For series [4] the following is noted: rat, in vivo; cited from earlier work.
The conditions of series [5]: cited from earlier work. The source holds these as a separate data set.
Where [6] appears, read: IV infusion of 20 mcg/kg over 24 hours.

With `N.N.O=C([O-])C1(C(=O)[O-])CCC1.[Pt+2]` [carboplatin], in series [1], the half-life was 60 to 120 min.

Consider `COc1ccc(C(CN(C)C)C2(O)CCCCC2)cc1` (centres unmarked) [venlafaxine], for which, in series [1], the half-life result was “about 5 hours”.

As to streptokinase, in series [1], the half-life entry is “about 20 minutes”.

In the case of `O=C1[O][Pt]2([NH][C@@H]3CCCC[C@H]3[NH]2)[O]C1=O` [oxaliplatin], the blood plasma concentration entry in series [2] is listed as “approximately 3 micrograms per milliliter”. Besides, the half-life in series [1] is 10 to 25 min.

On to `COc1cc([C@@H]2c3cc4c(cc3[C@@H](O[C@@H]3O[C@@H]5CO[C@@H](C)O[C@H]5[C@H](O)[C@H]3O)[C@H]3COC(=O)[C@H]23)OCO4)cc(OC)c1O` [etoposide], for which the half-life entry in series [3] (in children) is reported as “about 3 hours”.

In the case of `Nc1ncnc2c1ncn2[C@@H]1O[C@H](CO)[C@@H](O)[C@H]1O` [Adenosine, adenosine], in series [1], the “half-life (in words)” value is listed as “a few seconds”.

For NGF: nerve growth factor, in series [4], the serum half-life result is listed as “about 7.2 minutes”.

For the molecule `O=C(O)CCCc1ccc(N(CCCl)CCCl)cc1` [Chlorambucil, chlorambucil], in series [3] (in human), the half-life entry was “about 1.5 hours”.

In the case of tissue plasminogen activator [TPA], the circulation half-life result in series [1] is recorded as “approximately 5 minutes”.

Take heparin: the half-life result in series [1] is “around 1.5 hours”.

Turning to `CC[C@H]1OC(=O)[C@H](C)[C@@H](O[C@H]2C[C@@](C)(OC)[C@@H](O)[C@H](C)O2)[C@H](C)[C@@H](O[C@@H]2O[C@H](C)C[C@H](N(C)C)[C@H]2O)[C@](C)(O)C[C@@H](C)C(=O)[C@H](C)[C@@H](O)[C@]1(C)O` [Erythromycin, erythromycin], the half-life result in series [1] was “approximately 1.5 hours”.

B1: NEUPOGEN® (Filgrastim): colony stimulating factor product, normally used systemically (protein, chains of the INN, looked up)
chain: MTPLGPASSLPQSFLLKCLEQVRKIQGDGAALQEKLCATYKLCHPEELVLLGHSLGIPWAPLSSCPSQALQLAGCLSQLHSGLFLYQGLLQALEGISPELGPTLDTLQLDVADFATTIWQQMEELGMAPALQPTQGAMPAFASAFQRRAGGVLVASHLQSFLEVSYRVLRHLAQP
Take B1: in series [5] (setting [6]), the mean serum concentration entry is “approximately 48 ng/mL” and the median serum concentration is listed as approximately 56 ng/mL. Further, in series [5] (subcutaneous administration of 3.45 mcg/kg), the maximum serum concentration is listed as 4 ng/mL. In addition, in series [5] (subcutaneous administration of 11.5 mcg/kg), the maximum serum concentration is 49 ng/mL. Besides, the half-life entry in series [1] is given as “about 3.5 hours”.

The values above are taken from patent US20090130017A1, “Targeted short-lived drug delivery” (Searete LLC, priority 2007, published 2009).
